Measured values as given in patent US20240016781A1, “TREATMENT OF KRAS MUTANT CANCERS” (MEI Pharma, Inc., priority 2020, published 2024).
Read-outs that look alike come from different tables or passages of the source.

Tests used:
Assay in all cases: 72-hour CellTiter-Glo 2.0 growth inhibition screen (single agent, 9x9 combination dose matrix);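 on Best CI Level: inhibition effect level at which the best CI was calculated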
Format in all cases: cell-based
Panc 04.03 = conditions: for EC50 / Response Area: Panc 04.03, Pancreas
NCI-H358 = conditions: for EC50: NCI-H358, 72 h
SW837 = conditions: for EC50: SW837, 72 h
KYSE-410 = conditions: for EC50: KYSE-410, 72 h
HCC44 = conditions: for EC50: HCC44, 72 h
[1] = Panc 04.03 (KRAS G12D), enhancer + MEI-522 (Voruciclib), 72 h;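 on Best CI Level: inhibition effect level at which the best CI was calculated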
[2] = enhancer combined with MEI-522 (Voruciclib), Panc 04.03 (Pancreas), 72 hours, inhibition data
[3] = NCl-H358 (KRAS G12C), enhancer + MEI-522 (Voruciclib), 72 h
[4] = enhancer combined with MEI-522 (Voruciclib), NCl-H358 (Lung), 72 hours, inhibition data
[5] = Homo sapiens, SW837, Colorectal, Additional Single Agent Responses (inhibition, % I), 72 h
[6] = Homo sapiens, SW837, Colorectal, growth inhibition (GI) curve, single agent, 72 h
[7] = SW837 (KRAS G12C), enhancer + MEI-522 (Voruciclib), 72 h;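 on Best CI Level: inhibition effect level at which the best CI was calculated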
[8] = enhancer combined with MEI-522 (Voruciclib), SW837 (Colorectal), 72 hours, inhibition data
[9] = Homo sapiens, KYSE-410, Esophageal, Additional Single Agent Responses (inhibition, % I), 72 h
[10] = Homo sapiens, KYSE-410, Esophageal, growth inhibition (GI) curve, single agent, 72 h
[11] = KYSE-410 (KRAS G12C), enhancer + MEI-522 (Voruciclib), 72 h;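 on Best CI Level: inhibition effect level at which the best CI was calculated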
[12] = enhancer combined with MEI-522 (Voruciclib), KYSE-410 (Esophageal), 72 hours, inhibition data
[13] = HCC44 (KRAS G12C), enhancer + MEI-522 (Voruciclib), 72 h;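 on Best CI Level: inhibition effect level at which the best CI was calculated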
[14] = Homo sapiens, HCC44, Lung, Additional Single Agent Responses (inhibition, % I), 72 h
[15] = Homo sapiens, HCC44, Lung, growth inhibition (GI) curve, single agent, 72 h
[16] = enhancer combined with MEI-522 (Voruciclib), HCC44 (Lung), 72 hours, inhibition data

GI50 (Panc 04.03; Homo sapiens, Panc 04.03, 72 h): 4.6 nM | IC50 (Panc 04.03; Homo sapiens, Panc 04.03, 72 h): 5.9 nM | EC50 (Panc 04.03; Homo sapiens, Panc 04.03, 72 h, Additional Single Agent Responses (inhibition, % I), 72 h): 4.2 nM | EC50 (Panc 04.03; Homo sapiens, Panc 04.03, 72 h, growth inhibition (GI) curve, single agent, 72 h): 4.2 nM | EC50 (NCI-H358; Homo sapiens, NCl-H358, Lung, Additional Single Agent Responses (inhibition, % I), 72 h): 6.1 nM | EC50 (NCI-H358; Homo sapiens, NCl-H358, Lung, growth inhibition (GI) curve, single agent, 72 h): 6.1 nM | IC50 (NCI-H358; Homo sapiens, NCI-H358, NCl-H358, Lung, Additional Single Agent Responses (inhibition, % I), 72 h): 7.8 nM | GI50 (NCI-H358; Homo sapiens, NCI-H358, NCl-H358, Lung, growth inhibition (GI) curve, single agent, 72 h): 6.5 nM | EC50 (SW837; [5]): 13.8 nM | EC50 (SW837; [6]): 20.1 nM | IC50 (SW837; [5]): 21 nM | GI50 (SW837; [6]): 14.8 nM | EC50 (HCC44; [14]): 4.2 nM | EC50 (HCC44; [15]): 4.5 nM | IC50 (HCC44; [14]): 6.3 nM | GI50 (HCC44; [15]): 4.4 nM
Structure (SMILES): CC[C@@H]1C(=O)N(C)c2cnc(Nc3ccc(C(=O)N[C@H]4CC[C@H](N5CCN(CC6CC6)CC5)CC4)cc3OC)nc2N1C(C)C [Volasertib]
Emax (Panc 04.03; Homo sapiens, Panc 04.03, 72 h, read-out: Max Response (% GI)): 87% | Emax (Panc 04.03; Homo sapiens, Panc 04.03, 72 h, read-out: Max Response (% I)): 64% | Best CI (Panc 04.03; [1]): 0.74 | Bliss Volume (Panc 04.03; [1]): 4.14 | HSA volume (Panc 04.03; [1]): 2.74 | Loewe Volume (Panc 04.03; [1]): 1.36 | Synergy Score (Panc 04.03; [1]): 7.71 | Response Area (Panc 04.03; Additional Single Agent Responses (inhibition, % I), 72 h): 2.78 | Response Area (Panc 04.03; growth inhibition (GI), AUC, single agent, 72 h): 3.75 | Best CI (Panc 04.03; [2]): 0.67 | Best CI Level (Panc 04.03; [2]): 80 | Bliss Volume (Panc 04.03; [2]): −0.87 | HSA volume (Panc 04.03; [2]): 1.03 | Loewe Volume (Panc 04.03; [2]): 0.18 | Synergy Score (Panc 04.03; [2]): 2.30 | Emax (NCI-H358; Homo sapiens, NCI-H358, NCl-H358, Lung, Additional Single Agent Responses, 72 h, read-out: Max Response (% I)): 75% | Emax (NCI-H358; Homo sapiens, NCI-H358, NCl-H358, Lung, growth inhibition (GI), single agent, 72 h, read-out: Max Response (% GI)): 100% | Bliss Volume (NCI-H358; [3]): −1.58 | HSA volume (NCI-H358; [3]): −4.12 | Loewe Volume (NCI-H358; [3]): −3.93 | Synergy Score (NCI-H358; [3]): 3.21 | Response Area (NCI-H358; NCl-H358, Lung, Additional Single Agent Responses (inhibition, % I), 72 h): 3.44 | Response Area (NCI-H358; NCl-H358, Lung, growth inhibition (GI), AUC, single agent, 72 h): 4.57 | Best CI (NCI-H358; [4]): 0.80 | Best CI Level (NCI-H358; [4]): 20 | Bliss Volume (NCI-H358; [4]): −4.08 | HSA volume (NCI-H358; [4]): −3.08 | Loewe Volume (NCI-H358; [4]): −3.28 | Synergy Score (NCI-H358; [4]): 0.69 | Emax (SW837; Homo sapiens, SW837, Colorectal, Additional Single Agent Responses, 72 h, read-out: Max Response (% I)): 79% | Emax (SW837; Homo sapiens, SW837, Colorectal, growth inhibition (GI), single agent, 72 h, read-out: Max Response (% GI)): 128% | Best CI (SW837; [7]): 0.72 | Bliss Volume (SW837; [7]): 4.69 | HSA volume (SW837; [7]): 2.14 | Loewe Volume (SW837; [7]): 0.39 | Synergy Score (SW837; [7]): 5.42 | Response Area (SW837; SW837, Colorectal, Additional Single Agent Responses (inhibition, % I), 72 h): 3.61 | Response Area (SW837; SW837, Colorectal, growth inhibition (GI), AUC, single agent, 72 h): 5.63 | Best CI (SW837; [8]): 0.83 | Best CI Level (SW837; [8]): 20 | Bliss Volume (SW837; [8]): 0.17 | HSA volume (SW837; [8]): 1.01 | Loewe Volume (SW837; [8]): 0.29 | Synergy Score (SW837; [8]): 1.39 | EC50 (KYSE-410; [9]): 8.6 nM | EC50 (KYSE-410; [10]): 8.5 nM | IC50 (KYSE-410; [9]): 13.1 nM | Emax (KYSE-410; Homo sapiens, KYSE-410, Esophageal, Additional Single Agent Responses, 72 h, read-out: Max Response (% I)): 74% | GI50 (KYSE-410; [10]): 10.1 nM | Emax (KYSE-410; Homo sapiens, KYSE-410, Esophageal, growth inhibition (GI), single agent, 72 h, read-out: Max Response (% GI)): 89% | Best CI (KYSE-410; [11]): 1.85 | Bliss Volume (KYSE-410; [11]): −3.04 | HSA volume (KYSE-410; [11]): −2.10 | Loewe Volume (KYSE-410; [11]): −3.58 | Synergy Score (KYSE-410; [11]): 0.91 | Response Area (KYSE-410; KYSE-410, Esophageal, Additional Single Agent Responses (inhibition, % I), 72 h): 3.52 | Response Area (KYSE-410; KYSE-410, Esophageal, growth inhibition (GI), AUC, single agent, 72 h): 4.24 | Best CI (KYSE-410; [12]): 0.40 | Bliss Volume (KYSE-410; [12]): −3.11 | HSA volume (KYSE-410; [12]): −1.71 | Loewe Volume (KYSE-410; [12]): −2.95 | Synergy Score (KYSE-410; [12]): 0.62 | Best CI Level (KYSE-410; enhancer combined with MEI-522 (Voruciclib), KYSE-410 (Esophageal), 72 hours, inhibition data, unit assumed): 70% | Best CI (HCC44; [13]): 0.55 | Bliss Volume (HCC44; [13]): 6.88 | HSA volume (HCC44; [13]): 2.51 | Loewe Volume (HCC44; [13]): 0.65 | Synergy Score (HCC44; [13]): 6.97 | Response Area (HCC44; HCC44, Lung, Additional Single Agent Responses (inhibition, % I), 72 h): 4.07 | Response Area (HCC44; HCC44, Lung, growth inhibition (GI), AUC, single agent, 72 h): 5.39 | Emax (HCC44; Homo sapiens, HCC44, Lung, Additional Single Agent Responses, 72 h, read-out: Max Response (% I)): 81% | Emax (HCC44; Homo sapiens, HCC44, Lung, growth inhibition (GI), single agent, 72 h, read-out: Max Response (% GI)): 113% | Best CI (HCC44; [16]): 0.83 | Bliss Volume (HCC44; [16]): −1.88 | HSA volume (HCC44; [16]): 0.12 | Loewe Volume (HCC44; [16]): −0.92 | Synergy Score (HCC44; [16]): 1.13 | Best CI Level (HCC44; enhancer combined with MEI-522 (Voruciclib), HCC44 (Lung), 72 hours, inhibition data, unit assumed): 80%
